# Assay results taken from PubChem BioAssay AID306 (DTP/NCI, 2004).
# “And” between values parts separate entries of the source, which are not always exact repeats. Equal entries are not always repeated. Inconclusive results and toxic doses are left out.
# System: BDF1 mice, L1210 Methyl-GAG-resistant leukemia, survival T/C
# Assay: NCI In Vivo Anticancer Drug Screen. Data for tumor model L1210 Leukemia resistant to Methyl-GAG; NSC 32946 (subcutaneous) in B6D2F1 (BDF1) mice
# Details: endpoint: mean survival time, higher = longer survival
# Procedure: The antitumor activity of compounds was measured in mice bearing transplantable tumors. Survival or tumor size were measured and the results are expressed as the measurement made in the treated group (T) divided by the measurement made in the vehicle treated control group (C). The tumor model used in this assay is L1210 Leukemia resistant to Methyl-GAG; NSC 32946 (subcutaneous) in B6D2F1 (BDF1) mice
# [1] = dose: 62.5 mg/kg/injection, schedule: Q01DX Z (ip), vehicle: carboxymethylcellulose (CMC)
# [2] = dose: 125.0 mg/kg/injection, schedule: Q01DX Z (ip), vehicle: carboxymethylcellulose (CMC)
# [3] = dose: 250.0 mg/kg/injection, schedule: Q01DX Z (ip), vehicle: carboxymethylcellulose (CMC)
# [4] = dose: 500.0 mg/kg/injection, schedule: Q01DX Z (ip), vehicle: carboxymethylcellulose (CMC)
# [5] = dose: 6.25 mg/kg/injection, schedule: Q01DX Z (ip), vehicle: carboxymethylcellulose (CMC)
# [6] = dose: 12.5 mg/kg/injection, schedule: Q01DX Z (ip), vehicle: carboxymethylcellulose (CMC)
# [7] = dose: 12.5 mg/kg/injection, schedule: Q01DX Z (ip), vehicle: water
# [8] = dose: 25.0 mg/kg/injection, schedule: Q01DX Z (ip), vehicle: carboxymethylcellulose (CMC)
# [9] = dose: 25.0 mg/kg/injection, schedule: Q01DX Z (ip), vehicle: water
# [10] = dose: 50.0 mg/kg/injection, schedule: Q01DX Z (ip), vehicle: water
smiles,measurement,setting,value
Cc1cc(N(CCCl)CCCl)ccc1N=Nc1ccccc1C(=O)O,T/C,"dose: 15.0 mg/kg/injection, schedule: Q01DX Z (ip), vehicle: carboxymethylcellulose (CMC)",96 % of control
same,T/C,"dose: 30.0 mg/kg/injection, schedule: Q01DX Z (ip), vehicle: carboxymethylcellulose (CMC)",99 % of control
same,T/C,"dose: 60.0 mg/kg/injection, schedule: Q01DX Z (ip), vehicle: carboxymethylcellulose (CMC)",96 % of control
O=C(Nc1ccc(C2=NCCCN2)cc1)c1ccc(NC(=O)c2ccc(C3=NCCCN3)cc2)cc1,T/C,"dose: 0.24 mg/kg/injection, schedule: Q01DX Z (ip), vehicle: carboxymethylcellulose (CMC)",97 % of control
same,T/C,"dose: 0.47 mg/kg/injection, schedule: Q01DX Z (ip), vehicle: carboxymethylcellulose (CMC)",101 % of control
same,T/C,"dose: 0.95 mg/kg/injection, schedule: Q01DX Z (ip), vehicle: carboxymethylcellulose (CMC)",104 % of control
same,T/C,"dose: 1.9 mg/kg/injection, schedule: Q01DX Z (ip), vehicle: carboxymethylcellulose (CMC)",98 % of control
same,T/C,"dose: 1.95 mg/kg/injection, schedule: Q01DX Z (ip), vehicle: carboxymethylcellulose (CMC)",175 % of control and 192 % of control
same,T/C,"dose: 3.9 mg/kg/injection, schedule: Q01DX Z (ip), vehicle: carboxymethylcellulose (CMC)",169 % of control and 232 % of control
same,T/C,"dose: 7.8 mg/kg/injection, schedule: Q01DX Z (ip), vehicle: carboxymethylcellulose (CMC)",216 % of control
same,T/C,"dose: 15.6 mg/kg/injection, schedule: Q01DX Z (ip), vehicle: carboxymethylcellulose (CMC)",112 % of control and 122 % of control
CCC(=O)O[C@H]1CC[C@H]2[C@@H]3CCC4=CC(=O)CC[C@]4(C)[C@H]3CC[C@]12C,T/C,"dose: 37.5 mg/kg/injection, schedule: Q01DX Z (sc), vehicle: steriod suspending solution",101 % of control
same,T/C,"dose: 60.0 mg/kg/injection, schedule: Q01DX Z (sc), vehicle: steriod suspending solution",120 % of control
same,T/C,"dose: 75.0 mg/kg/injection, schedule: Q01DX Z (sc), vehicle: steriod suspending solution",104 % of control
same,T/C,"dose: 150.0 mg/kg/injection, schedule: Q01DX Z (sc), vehicle: steriod suspending solution",98 % of control
same,T/C,"dose: 300.0 mg/kg/injection, schedule: Q01DX Z (sc), vehicle: steriod suspending solution",98 % of control and 119 % of control
same,T/C,"dose: 1500.0 mg/kg/injection, schedule: Q01DX Z (sc), vehicle: steriod suspending solution",96 % of control
Nc1nc(=S)c2ncn(C3OC(CO)C(O)C3O)c2[nH]1 (stereo unspecified),T/C,"dose: 0.16 mg/kg/injection, schedule: Q01DX Z (ip), vehicle: carboxymethylcellulose (CMC)",92 % of control
same,T/C,"dose: 0.31 mg/kg/injection, schedule: Q01DX Z (ip), vehicle: carboxymethylcellulose (CMC)",91 % of control
same,T/C,"dose: 0.62 mg/kg/injection, schedule: Q01DX Z (ip), vehicle: carboxymethylcellulose (CMC)",102 % of control
same,T/C,"dose: 1.25 mg/kg/injection, schedule: Q01DX Z (ip), vehicle: carboxymethylcellulose (CMC)",111 % of control
same,T/C,"dose: 2.5 mg/kg/injection, schedule: Q01DX Z (ip), vehicle: carboxymethylcellulose (CMC)",152 % of control
CS(=O)(=O)OCCCCOS(C)(=O)=O,T/C,"dose: 0.4 mg/kg/injection, schedule: Q01DX Z (ip), vehicle: methylcellulose (MC)",102 % of control
same,T/C,"dose: 1.6 mg/kg/injection, schedule: Q01DX Z (ip), vehicle: methylcellulose (MC)",102 % of control
same,T/C,"dose: 3.2 mg/kg/injection, schedule: Q01DX Z (ip), vehicle: methylcellulose (MC)",86 % of control
same,T/C,"dose: 6.4 mg/kg/injection, schedule: Q01DX Z (ip), vehicle: methylcellulose (MC)",88 % of control and 102 % of control
O=CCC(O)C(O)C(O)CO (stereo unspecified),T/C,[1],98 % of control
same,T/C,[2],103 % of control
same,T/C,[3],101 % of control
same,T/C,[4],119 % of control
same,T/C,"dose: 1000.0 mg/kg/injection, schedule: Q01DX Z (ip), vehicle: carboxymethylcellulose (CMC)",108 % of control
same,T/C,"dose: 2000.0 mg/kg/injection, schedule: Q01DX Z (ip), vehicle: carboxymethylcellulose (CMC)",90 % of control
CN(C)c1ccc(/C=C/c2ccnc3ccccc23)cc1,T/C,"dose: 3.1 mg/kg/injection, schedule: Q01DX Z (ip), vehicle: water",102 % of control
same,T/C,"dose: 3.12 mg/kg/injection, schedule: Q01DX Z (ip), vehicle: carboxymethylcellulose (CMC)",100 % of control
same,T/C,[5],96 % of control
same,T/C,"dose: 6.25 mg/kg/injection, schedule: Q01DX Z (ip), vehicle: water",97 % of control
same,T/C,[6],94 % of control
same,T/C,[7],97 % of control
same,T/C,[8],100 % of control
same,T/C,[9],100 % of control
same,T/C,"dose: 50.0 mg/kg/injection, schedule: Q01DX Z (ip), vehicle: carboxymethylcellulose (CMC)",94 % of control
same,T/C,[10],91 % of control
same,T/C,"dose: 100.0 mg/kg/injection, schedule: Q01DX Z (ip), vehicle: carboxymethylcellulose (CMC)",100 % of control
O=P1(N(CCCl)CCCl)NCCCO1 (stereo unspecified),T/C,"dose: 6.25 mg/kg/injection, schedule: Q01DX Z (ip), vehicle: saline",93 % of control
same,T/C,"dose: 12.5 mg/kg/injection, schedule: Q01DX Z (ip), vehicle: saline",122 % of control and 123 % of control
same,T/C,"dose: 25.0 mg/kg/injection, schedule: Q01DX Z (ip), vehicle: saline",254 % of control and 151 % of control
same,T/C,"dose: 50.0 mg/kg/injection, schedule: Q01DX Z (ip), vehicle: saline",257 % of control and 98 % of control
same,T/C,"dose: 100.0 mg/kg/injection, schedule: Q01DX Z (ip), vehicle: saline",90 % of control and 98 % of control
NC(=O)c1ccc(N)nc1,T/C,"dose: 0.31 mg/kg/injection, schedule: Q01DX Z (ip), vehicle: saline",106 % of control
same,T/C,"dose: 0.31 mg/kg/injection, schedule: Q01DX Z (ip), vehicle: water",102 % of control
same,T/C,"dose: 0.63 mg/kg/injection, schedule: Q01DX Z (ip), vehicle: saline",101 % of control
same,T/C,"dose: 0.63 mg/kg/injection, schedule: Q01DX Z (ip), vehicle: water",115 % of control
same,T/C,"dose: 1.25 mg/kg/injection, schedule: Q01DX Z (ip), vehicle: saline",98 % of control
CC/C(=C(/CC)c1ccc(O)cc1)c1ccc(O)cc1,T/C,"dose: 31.25 mg/kg/injection, schedule: Q01DX Z (sc), vehicle: steriod suspending solution",97 % of control
same,T/C,"dose: 62.5 mg/kg/injection, schedule: Q01DX Z (sc), vehicle: steriod suspending solution",110 % of control
same,T/C,"dose: 125.0 mg/kg/injection, schedule: Q01DX Z (sc), vehicle: steriod suspending solution",100 % of control
same,T/C,"dose: 250.0 mg/kg/injection, schedule: Q01DX Z (sc), vehicle: steriod suspending solution",87 % of control
O=C(O)CCCc1ccc(N(CCCl)CCCl)cc1,T/C,[5],91 % of control
same,T/C,[6],98 % of control
same,T/C,[8],104 % of control
O=C(Nc1ccc(C2=NCCN2)cc1)c1cccc(C(=O)Nc2ccc(C3=NCCN3)cc2)c1,T/C,"dose: 1.2 mg/kg/injection, schedule: Q01DX Z (ip), vehicle: water",102 % of control
same,T/C,"dose: 2.4 mg/kg/injection, schedule: Q01DX Z (ip), vehicle: water",108 % of control
same,T/C,"dose: 9.4 mg/kg/injection, schedule: Q01DX Z (ip), vehicle: water",211 % of control
same,T/C,[7],223 % of control
same,T/C,"dose: 18.8 mg/kg/injection, schedule: Q01DX Z (ip), vehicle: water",226 % of control
same,T/C,[9],236 % of control
same,T/C,"dose: 37.5 mg/kg/injection, schedule: Q01DX Z (ip), vehicle: carboxymethylcellulose (CMC)",202 % of control
same,T/C,"dose: 37.5 mg/kg/injection, schedule: Q01DX Z (ip), vehicle: water",287 % of control
same,T/C,[10],113 % of control
same,T/C,"dose: 75.0 mg/kg/injection, schedule: Q01DX Z (ip), vehicle: carboxymethylcellulose (CMC)",224 % of control
same,T/C,"dose: 150.0 mg/kg/injection, schedule: Q01DX Z (ip), vehicle: carboxymethylcellulose (CMC)",247 % of control
CCOC(=O)NP(=O)(N1CC1(C)C)N1CC1(C)C (stereo unspecified),T/C,[1],95 % of control
same,T/C,[2],95 % of control
same,T/C,[3],97 % of control
same,T/C,[4],93 % of control
O=NN(CCCl)C(=O)NCCCl,T/C,"dose: 1.0 mg/kg/injection, schedule: Q01DX Z (ip), vehicle: saline",122 % of control
same,T/C,"dose: 2.0 mg/kg/injection, schedule: Q01DX Z (ip), vehicle: saline",155 % of control
same,T/C,"dose: 4.0 mg/kg/injection, schedule: Q01DX Z (ip), vehicle: saline",202 % of control
same,T/C,"dose: 8.0 mg/kg/injection, schedule: Q01DX Z (ip), vehicle: saline",172 % of control
same,T/C,"dose: 16.0 mg/kg/injection, schedule: Q01DX Z (ip), vehicle: saline",92 % of control
same,T/C,"dose: 32.0 mg/kg/injection, schedule: Q01DX Z (ip), vehicle: saline",92 % of control
